Read-outs that look alike come from different tables or passages of the source.
How the values were obtained:
[1] = test system: recurrent or metastatic cervical cancer that has progressed after first-line platinum-based treatment
cervical cancer [2] = details: 5/19; squamous histology only; cited from earlier work
cervical cancer [3] = details: patient population of 60% squamous histology; cited from earlier work
cervical cancer [4] = details: 12/98; cited from earlier work
[5] = subgroup with IC chemotherapy selected prior to randomisation: Gemcitabine (n = 108 vs 121)
[6] = subgroup with IC chemotherapy selected prior to randomisation: Irinotecan (n = 26 vs 19)

With `Nc1ccn([C@@H]2O[C@H](CO)[C@@H](O)C2(F)F)c(=O)n1` [gemcitabine, reference compound] the “Median OS (95% CI)” value [1, 5] was 9.0 (7.0-10.6) months, the “Median PFS (95% CI)” value [1, 5] was 2.8 (2.1-3.9) months and the ORR [1, 5] was 5.0%.

In the case of `CCc1c2c(nc3ccc(OC(=O)N4CCC(N5CCCCC5)CC4)cc13)-c1cc3c(c(=O)n1C2)COC(=O)[C@]3(O)CC` [irinotecan, reference compound], the “Median OS (95% CI)” value [1, 6] is reported as 11.8 (6.9-14.9) months, the “Median PFS (95% CI)” value [1, 6] is reported as 4.2 (1.6-8.3) months and the ORR [1, 6] is reported as 15.8%.

For nivolumab, the objective response rate (cervical cancer [2]) is given as 26.3% and the response rate (cervical cancer [3]) is given as 4%.

For pembrolizumab, the “ORR in the cervical cancer cohort” value (cervical cancer [4]) is given as 12.2%.
